From PubChem BioAssay (NCI)
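Method: 48-hour compound exposure of cells in 96-well plates, five concentrations, linear interpolation of endpoints. TGI: total growth inhibition.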

Key:
Assay in all cases: NCI tumour cell line growth inhibition, 48 h
COLO 205 colon = tested on: COLO 205 colon
A498 renal = tested on: A498 renal
OVCAR-3 ovarian = tested on: OVCAR-3 ovarian
UACC-62 melanoma = tested on: UACC-62 melanoma
MDA-MB-231 breast = tested on: MDA-MB-231 breast
SR leukemia = tested on: SR leukemia
SNB-75 CNS = tested on: SNB-75 CNS
HCC-2998 colon = tested on: HCC-2998 colon
OVCAR-5 ovarian = tested on: OVCAR-5 ovarian
786-0 renal = tested on: 786-0 renal

| Compound | TGI (COLO 205 colon) [µM] | TGI (A498 renal) [µM] | TGI (OVCAR-3 ovarian) [µM] | TGI (UACC-62 melanoma) [µM] | TGI (MDA-MB-231 breast) [µM] | TGI (SR leukemia) [µM] | TGI (SNB-75 CNS) [µM] | TGI (HCC-2998 colon) [µM] | TGI (OVCAR-5 ovarian) [µM] | TGI (786-0 renal) [µM] |
| --- | --- | --- | --- | --- | --- | --- | --- | --- | --- | --- |
| CS(=O)(=O)c1nc(-c2cc3c(c(S(C)(=O)=O)n2)CCCC3)cc2c1CCCC2 | > 100 | > 100 | > 100 | > 62.3 | > 100 | > 100 | 25.3 | > 100 | > 100 | > 100 |
| CN(C)CCn1c(=O)c2ccc3c4c(nn3CCN(C)C)c3cc(N)ccc3n(c1=O)c24 | 0.199 | 0.364 | 0.164 | 0.281 | 0.195 | > 42.5 | 0.0971 | 1.04 | 0.111 | 0.0573 |
| OCCOCn1cc(Cn2ncc3c(SCc4ccccc4)ncnc32)nn1 | > 100 | > 100 | > 100 | > 100 | > 100 | – | > 100 | > 100 | > 100 | > 100 |
| O=C(O)C(CSC(c1ccccc1)(c1ccccc1)c1ccccc1)N=Cc1cccs1 (centres undefined) | 6.49 | > 96.8 | 19.1 | > 78.3 | 7.01 | > 100 | > 79.5 | 27.7 | > 100 | > 53.2 |
| N#CC(c1ccccc1)N1CCCN(C(C#N)c2ccccc2)C1c1ccccc1O (centres undefined) | > 100 | > 100 | > 100 | > 100 | > 100 | > 100 | > 100 | > 100 | > 100 | > 100 |
| Nc1ccccc1N/C(=C\C(=O)C(Cl)(Cl)Cl)c1ccccc1 | 98.1 | – | 65.2 | 45.3 | 36.2 | > 100 | > 100 | 34.9 | 41.5 | 54.3 |
| O=[N+]([O-])c1ccc2c(c1)c(N=NC(=S)NC1CCCCC1)c(O)n2CN1CCOCC1 | 23.4 | 17.5 | 20.4 | 20.5 | 31.8 | 21.5 | 24.2 | 17.6 | 23.8 | 18.6 |
| CC1(C)CCC2(C(=O)OC3OC(CO)C(O)C(O)C3O)CCC3(C)C(=CCC4C5(C)CCC(OC6OC(CO)C(O)C(O)C6O)C(C)(C)C5CCC43C)C2C1 (centres undefined) | > 25 | > 25 | > 25 | > 25 | > 25 | 10.7 | > 25 | 9.83 | > 25 | > 25 |
| CCOC(=O)C1CCn2c(nc3c2c(=O)n(C)c(=O)n3C)S1 (centres undefined) | – | – | > 100 | > 100 | – | > 100 | > 100 | – | > 100 | – |
| COc1c2c(cc3c1C(O)N1CC[C@]34[C@H]3O[C@H]3[C@H](OC)C[C@@H]14)OCO2 (some centres undefined) | > 100 | > 100 | 38.4 | > 100 | > 100 | 88.6 | > 100 | > 100 | > 100 | > 100 |
| CCOC(=O)/C(=C\NCC(OCC)OCC)c1nc2ccccc2[nH]1 | 39.6 | > 100 | 61.9 | 33.2 | – | 58.5 | 61.6 | 51.3 | > 100 | > 100 |
| COC(=O)C1C(O)CCC2CN3CCc4c([nH]c5cccc(OC)c45)C3CC21 (centres undefined) | > 100 | > 100 | > 100 | > 100 | > 100 | > 100 | > 100 | > 100 | > 100 | > 100 |
| O=[n+]1c2c(n([O-])c3ccccc31)-c1cccc3cccc-2c13 | > 100 | > 100 | > 100 | – | > 100 | > 100 | 94.7 | > 100 | – | – |
| Nc1nc(N)c2c(n1)NC(c1ccccc1)CC(/C=C/c1ccc(Cl)cc1)=N2 (centres undefined) | 7.5 | 32.9 | 23.4 | 25 | 18.4 | – | 33.9 | – | 32.5 | 12 |
| [O-][N+](CCO)(CCO)c1ncnc2nc[nH]c12 | > 100 | > 100 | > 100 | > 100 | > 100 | > 100 | > 100 | > 100 | > 100 | > 100 |
| CCC(C)C1NC(=O)C2CCCN2C(=O)C(CC2CO2)OC(=O)CCNC(=O)C(C)N(C)C(=O)C(C(C)C)N(C)C1=O (centres undefined) | 47.3 | > 100 | > 100 | 2.15 | > 100 | – | – | > 100 | > 100 | – |
| COc1ccc(N=c2ssc(C(=S)Nc3ccc(OC)cc3)c2S)cc1 | > 100 | > 100 | > 100 | > 100 | > 100 | > 100 | > 100 | 84.6 | > 100 | > 100 |
| CN(CCCNC(=O)c1cn(C)c2c1ccc1cc(Cl)c(Cl)cc12)CCCNC(=O)c1cn(C)c2c1ccc1cc(Cl)c(Cl)cc12 | 9.58 | 28 | > 54.9 | 31.7 | 29.8 | 16.5 | 25.6 | 18.6 | 31.2 | 49.4 |
